Measured values: ChEMBL document CHEMBL1201862, “PubChem BioAssay data set” (2004)
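Cultured in 96-well plates, cells were exposed to test compound for 48 hours across five concentrations. GI50: concentration for 50% inhibition of growth.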 Active and inactive are the calls of the source. Rule as the data show it: active = GI50 up to about 1.1 µM and inactive = higher.

Legend:
Assay in all cases: NCI anticancer screen, dose series, 48 h
COLO 205 = system: COLO 205
DLD-1 = system: DLD-1
DMS-273 = system: DMS-273
HCC 2998 = system: HCC 2998
HL-60 = system: HL-60
K562 = system: K562
KM-20L2 = system: KM-20L2
KM12 = system: KM12
NCI-H23 = system: NCI-H23
RPMI-8226 = system: RPMI-8226
SF-268 = system: SF-268
SK-OV-3 = system: SK-OV-3
SNB-19 = system: SNB-19
U-251 = system: U-251
UACC-257 = system: UACC-257
CCRF-CEM = system: CCRF-CEM
IGROV-1 = system: IGROV-1
RXF 393 = system: RXF 393
SW-620 = system: SW-620
OVCAR-3 = system: OVCAR-3

Measured: GI50

COc1ccc(C(=O)/C(Br)=C/C(=O)O)cc1
inactive: COLO 205 18.7 µM | DLD-1 12.6 µM | DMS-273 9.82 µM | HCC 2998 19.2 µM | HL-60 27.5 µM | K562 29.5 µM | KM-20L2 29.5 µM | KM12 14.7 µM | NCI-H23 26.8 µM | RPMI-8226 11.5 µM | SF-268 31.6 µM | SK-OV-3 69.8 µM | SNB-19 77.6 µM | U-251 15.6 µM | UACC-257 26.9 µM

CC(=O)C(C(=O)C(=O)Nc1cc(Cl)c(Cl)cc1Cl)c1csc(N)n1 (stereo unspecified)
inactive: CCRF-CEM > 100 µM | COLO 205 > 100 µM | DLD-1 > 100 µM | DMS-273 > 100 µM | HCC 2998 > 100 µM | HL-60 > 100 µM | IGROV-1 > 100 µM | K562 > 100 µM | KM-20L2 > 100 µM | KM12 > 100 µM | NCI-H23 > 100 µM | RPMI-8226 > 100 µM | RXF 393 > 100 µM | SF-268 > 100 µM | SK-OV-3 > 100 µM | SNB-19 > 100 µM | SW-620 > 100 µM | U-251 > 100 µM | UACC-257 > 100 µM

CC12Nc3ccccc3C1=C(c1ccccc1)CC1C(=O)OC(=O)C12 (stereo unspecified)
inactive: CCRF-CEM > 100 µM | COLO 205 > 100 µM | DLD-1 > 100 µM | DMS-273 > 100 µM | HCC 2998 > 100 µM | HL-60 > 100 µM | IGROV-1 > 100 µM | K562 > 100 µM | KM-20L2 > 100 µM | KM12 > 100 µM | NCI-H23 > 100 µM | OVCAR-3 > 100 µM | RPMI-8226 > 100 µM | RXF 393 > 100 µM | SF-268 > 100 µM | SNB-19 > 100 µM | SW-620 > 100 µM | U-251 > 100 µM | UACC-257 > 100 µM

COC1=CC(=O)C=C(OC)C1=O [2,6-DIMETHOXYQUINONE]
inactive: CCRF-CEM 1.38 µM | COLO 205 12.6 µM | DLD-1 8.87 µM | DMS-273 36.1 µM | HCC 2998 27.9 µM | HL-60 3.94 µM | IGROV-1 11.3 µM | K562 7.1 µM | KM-20L2 30 µM | KM12 16.4 µM | NCI-H23 7.66 µM | OVCAR-3 4.78 µM | RPMI-8226 6 µM | RXF 393 7.96 µM | SF-268 6.46 µM | SK-OV-3 17.9 µM | SNB-19 13.6 µM | SW-620 6.37 µM | U-251 31.6 µM | UACC-257 10.2 µM

O=C(Nc1nc2ccc([N+](=O)[O-])cc2s1)C(=O)C(C(=O)c1ccccc1F)C1OC(=O)c2ccccc21 (stereo unspecified)
inactive: CCRF-CEM 17.3 µM | COLO 205 21.3 µM | DLD-1 41 µM | DMS-273 33.7 µM | HCC 2998 24.9 µM | HL-60 20.3 µM | IGROV-1 75.5 µM | K562 29.9 µM | KM-20L2 49.4 µM | KM12 55.1 µM | NCI-H23 67.1 µM | RPMI-8226 16.4 µM | SF-268 34.2 µM | SK-OV-3 29 µM | SNB-19 28.6 µM | SW-620 41.3 µM | U-251 16.9 µM | UACC-257 92.5 µM

NCCCNCCSSCc1ccccc1CSSCCNCCCN
inactive: CCRF-CEM 4.54 µM | COLO 205 39.4 µM | DLD-1 44.4 µM | DMS-273 > 100 µM | HCC 2998 81.5 µM | HL-60 9.93 µM | IGROV-1 > 100 µM | K562 23.6 µM | KM-20L2 > 100 µM | KM12 49.9 µM | NCI-H23 > 100 µM | OVCAR-3 73.8 µM | RPMI-8226 27.8 µM | RXF 393 > 100 µM | SF-268 85.1 µM | SK-OV-3 > 100 µM | SNB-19 > 100 µM | SW-620 16.7 µM | U-251 > 100 µM | UACC-257 25 µM
